Assay results published in US20240002388A1, “PYRIMIDINONE COMPOUNDS AND USES THEREOF” (HUTCHISON MEDIPHARMA LIMITED, priority 2020, published 2024).

Tested on: L929 cell line (mouse fibroblastoma cell line)
Test: L929 cell viability assay (mTNF-α + Z-VAD-FMK induced necroptosis)
Format: cell-based
Details: Mus musculus, L929, 20 h, L929 cells, mTNF-α 0.1 μg/mL + Z-VAD-FMK 5 μM, CellTiter-Glo
Method: L929 cell line (mouse fibroblastoma cell line): purchased from ATCC (American Type Culture Collection) Cell Bank, cultured in 5% CO2, 37° C. incubator, and MEM medium which contains L-Glutamine, with 10% FBS was used. • MEM medium: GIBCO, Cat #11095080; • Fetal bovine serum (FBS): GIBCO, Cat #10099-141C; • Dimethyl sulfoxide (DMSO): Sigma, Cat #D2650; • 0.25% Trypsin-EDTA: GIBCO, Cat #25200072; • Recombinant Mouse TNF-alpha Protein (mTNF-α): R&D system, Cat #410-MT-050; • Pan-Caspase inhibitor (Z-VAD-FMK): Selleckchem, Cat #S7023; • CellTiter-Glo 2.0 Cell Viability Assay kit: Promega, Cat #G9242; • Microwell plate reader: Envision, Perkin Elmer; • 96-well plate: Corning, Cat #3917.
The L929 cells at the logarithmic phase were taken out, and the supernatant was discarded. After trypsinization and cell shedding, 10% FBS-containing medium was added for neutralization, and the supernatant was discarded after centrifugation. The cells were re-suspended using 10% FBS-containing medium, adjusted to 7×10^4 cells/ml, added to 96-well microplate at 70 μL/well, i.e., 4.9×10^3 cells/well. Then the plate was incubated in a 5% CO2, 37° C. cell incubator overnight.
After incubating overnight, the 96-well plate was taken out, the medium was discarded, and the plate was washed with 1% FBS-containing MEM medium. Then 1% FBS-containing MEM medium was added at 70 μL/well, and the plate was cultured in a 5% CO2, 37° C. cell incubator. After incubating for 1 hour, the test compound was diluted to the corresponding concentrations using DMSO with 3-fold serial dilution, then the corresponding concentration of DMSO diluted solution was diluted into 1% FBS-containing MEM medium, and 10 μL/well of the diluted test compound with different concentrations (final concentrations of test compound were 10, 3.33, 1.11, 0.37, 0.12, 0.04, 0.014 and 0.005 μM, while final concentration of DMSO was 0.3%) or 10 μL/well control solution (3% DMSO) were added to the cell culture system respectively, with the total volume being 80 μL/well. Then 10 μL of Z-VAD-FMK solution diluted with 1% FBS-containing MEM medium (final concentration of 5 μM) or 10 μL of control solution (2.5% DMSO) was added to each well, with the total volume being 90 μL/well. The plate was incubated in a 5% CO2, 37° C. cell culture incubator for 1 hour.
After incubating for 1 hour, 10 μL of recombinant mouse TNF-α protein solution diluted with 1% FBS-containing MEM medium (final concentration of 0.1 μg/mL) or 10 μL control solution (1% FBS-containing MEM medium) was added to each well. The plate was incubated in a 5% CO2, 37° C. cell culture incubator for 20 hours.
The cell culture plate was taken out from the incubator, and left to stand at room temperature for 30 minutes. Meanwhile, CellTiter-Glo viability assay kit was put from freezer to room temperature, and 50 μL of CellTiter-Glo reagent was added to all wells, the plate was shaken for 1 minutes, protected from light at room temperature for 10 minutes then read the plate on Envision to get the luminescence signal.
The 96-well plate in the dark was taken out, and the chemiluminescence was determined using the Envision microwell plate reader as the signal value of each well.
The mean signal value of the wells of the mixed solution of recombinant mouse TNF-alpha protein (final concentration of 0.1 μg/mL) and Pan-Caspase inhibitor (final concentration of 5 μM) was used as the lower value, and the mean signal value of the wells without stimulation was used as the upper value. According to the signal value of each well, the inhibition rate of each concentration of every compound was calculated, and the IC50 value of compound was obtained by Model 205 in XL-Fit 5.3 software (ID Business Solutions Limited).
Inhibition rate %=[(Luminescence readout of treated compound−Luminescence readout of positive control)/(Luminescence readout of negative control−Luminescence readout of positive control)]×100%, wherein

| Compound | IC50 |
| --- | --- |
| CC(C)n1cncc(-c2ccc(C3(NC(=O)c4ncc5cnn(C(C)C6CC6)c5n4)CC3)cc2)c1=O (racemic) [Compound 59, 1-(1-cyclopropylethyl)-N-(1-(4-(1-i-propyl-6-oxo-1,6-dihydropyrimidin-5-yl)phenyl)cyclopropyl)-1H-pyrazolo[3,4-d]pyrimidine-6-carboxamide] | 17 nM |
| CC(C)n1ncc2cnc(C(=O)NC3(c4ccc(-c5cncn([C@H](C)C(F)(F)F)c5=O)cc4F)CC3)nc21 (stereo in doubt) [Compound 46] | 19 nM |
| CC(C)n1ncc2cnc(C(=O)NC3(c4ccc(-c5cncn([C@@H](C)C(F)(F)F)c5=O)cc4F)CC3)nc21 (stereo in doubt) [Compound 47] | 24 nM |
| CC(C)n1ncc2cnc(C(=O)NC3(c4ccc(-c5cncn(C6CCOC6)c5=O)cc4)CC3)nc21 (stereo in doubt) [Compound 80, (R)-1-i-propyl-N-(1-(4-(6-oxo-1-(tetrahydrofuran-3-yl)-1,6-dihydropyrimidin-5-yl)phenyl)cyclopropyl)-1H-pyrazolo[3,4-d]pyrimidine-6-carboxamide] | 297 nM |
| CC(C)n1ncc2cnc(C(=O)NC3(c4ccc(-c5cncn(C6CCOC6)c5=O)cc4)CC3)nc21 (stereo in doubt) [Compound 81, (S)-1-i-propyl-N-(1-(4-(6-oxo-1-(tetrahydrofuran-3-yl)-1,6-dihydropyrimidin-5-yl)phenyl)cyclopropyl)-1H-pyrazolo[3,4-d]pyrimidine-6-carboxamide] | 258 nM |
| CC(C#N)n1cncc(-c2ccc(C3(NC(=O)c4ncc5cnn(C(C)C)c5n4)CC3)cc2)c1=O (stereo in doubt) [Compound 82, (R)—N-(1-(4-(1-(1-cyanoethyl)-6-oxo-1,6-dihydropyrimidin-5-yl)phenyl)cyclopropyl)-1-i-propyl-1H-pyrazolo[3,4-d]pyrimidine-6-carboxamide] | 359 nM |
| CC(C#N)n1cncc(-c2ccc(C3(NC(=O)c4ncc5cnn(C(C)C)c5n4)CC3)cc2)c1=O (stereo in doubt) [Compound 83, (S)—N-(1-(4-(1-(1-cyanoethyl)-6-oxo-1,6-dihydropyrimidin-5-yl)phenyl)cyclopropyl)-1-i-propyl-1H-pyrazolo[3,4-d]pyrimidine-6-carboxamide] | 199 nM |
| CC(C)n1ncc2cnc(C(=O)NC3(c4ccc(-c5cncn(C)c5=O)cc4)CC3)nc21 [Compound 1, 1-isopropyl-N-(1-(4-(1-methyl-6-oxo-1,6-dihydropyrimidin-5-yl)phenyl)cyclopropyl)-1H-pyrazolo[3,4-d]pyrimidine-6-carboxamide] | 1250 nM |
| CC(C)n1ncc2cnc(C(=O)NC3(c4ccc(-c5cncn(C)c5=O)cn4)CC3)nc21 [Compound 2] | 7450 nM |
| Cn1cncc(-c2ccc(C3(NC(=O)c4nnc(Cc5ccccc5)[nH]4)CC3)cc2)c1=O [Compound 3] | 4280 nM |
| Cn1cncc(-c2ccc(C3(NC(=O)c4ncc5cnn(-c6ccccc6)c5n4)CC3)cc2)c1=O [Compound 4] | 721 nM |
| Cn1cncc(-c2ccc(C3(NC(=O)c4cc(Cc5ccccc5)on4)CC3)cc2)c1=O [Compound 5] | 2500 nM |
| CC(C)Cc1nc(C(=O)NC2(c3ccc(-c4cncn(C)c4=O)cc3)CC2)ncc1Cl [Compound 6] | 299 nM |
| Cn1cncc(-c2ccc(C3(NC(=O)c4ncn(Cc5ccccc5)n4)CC3)cc2)c1=O [Compound 8] | 1760 nM |
| Cn1cncc(-c2ccc(C3(NC(=O)c4noc(Cc5ccccc5)n4)CC3)cc2)c1=O [Compound 9] | 2810 nM |
| Cn1cncc(-c2ccc(C3(NC(=O)c4ncc(Cc5ccccc5)o4)CC3)cc2)c1=O [Compound 10] | 676 nM |
| Cn1cncc(-c2ccc(C3(NC(=O)c4nnc(Cc5ccccc5)o4)CC3)cc2)c1=O [Compound 11] | 9120 nM |
| CC(C)n1ncc2cnc(C(=O)NC3(c4ccc(-c5cncn(C6CC6)c5=O)cc4)CC3)nc21 [Compound 12] | 1020 nM |
| CC(C)n1cncc(-c2ccc(C3(NC(=O)c4nnc(Cc5ccccc5)o4)CC3)cc2)c1=O [Compound 13] | 195 nM |
| CC(C)n1cncc(-c2ccc(C3(NC(=O)c4nc5n(n4)[C@@H](c4ccccc4)CC5)CC3)cc2)c1=O [Compound 15] | 2360 nM |

| Compound | IC50 |
| --- | --- |
| CC(C)n1cncc(-c2ccc(C3(NC(=O)c4nc5n(n4)[C@H](c4ccccc4)CC5)CC3)cc2)c1=O [Compound 16] | 7 nM |
| CC(C)n1cncc(-c2ccc(C3(NC(=O)c4ncn(Cc5ccccc5)n4)CC3)cc2)c1=O [Compound 17] | 25 nM |
| Cn1cncc(-c2ccc(C3(NC(=O)c4nnc(Cc5c(F)cccc5F)[nH]4)CC3)cc2)c1=O [Compound 18] | 1720 nM |
| CC(C)n1cncc(-c2ccc(C3(NC(=O)c4ncc5cnn(-c6ccccc6)c5n4)CC3)cc2)c1=O [Compound 19] | 61 nM |
| CC(C)Cc1nc(C(=O)NC2(c3ccc(-c4cncn(C(C)C)c4=O)cc3)CC2)ncc1Cl [Compound 22] | 28 nM |
| CC(C)n1ncc2cnc(C(=O)NC3(c4ccc(-c5cncn(C)c5=O)c(F)c4)CC3)nc21 [Compound 23, N-(1-(3-fluoro-4-(1-methyl-6-oxo-1,6-dihydropyrimidin-5-yl)phenyl)cyclopropyl)-1-isopropyl-1H-pyrazolo[3,4-d]pyrimidine-6-carboxamide] | 2700 nM |
| CC(C)n1ncc2cnc(C(=O)NC3(c4ccc(-c5cncn(C)c5=O)c(Cl)c4)CC3)nc21 [Compound 25] | 7600 nM |
| CC(C)n1ncc2cnc(C(=O)NC3(c4ccc(-c5cncn(C)c5=O)cc4F)CC3)nc21 [Compound 26] | 846 nM |
| CC(C)n1ncc2cnc(C(=O)NC3(c4ccc(-c5cncn(C)c5=O)cc4)CC3)cc21 [Compound 28, 1-isopropyl-N-(1-(4-(1-methyl-6-oxo-1,6-dihydropyrimidin-5-yl)phenyl)cyclopropyl)-1H-pyrazolo[4,3-c]pyridine-6-carboxamide] | 5700 nM |
| CC(C)n1cncc(-c2ccc(C3(NC(=O)c4ncc5cnn(C(C)C)c5n4)CC3)cc2)c1=O [Compound 29, 1-isopropyl-N-(1-(4-(1-isopropyl-6-oxo-1,6-dihydropyrimidin-5-yl)phenyl)cyclopropyl)-1H-pyrazolo[3,4-d]pyrimidine-6-carboxamide] | 34 nM |
| CC(C)n1ncc2cnc(C(=O)NC3(c4ccc(-c5cnc(N)n(C)c5=O)cc4)CC3)nc21 [Compound 30] | 2590 nM |
| CC(C)n1cncc(-c2ccc(C3(NC(=O)c4ncc5cnn(C(C)C)c5n4)CC3)cc2Cl)c1=O [Compound 33] | 665 nM |
| CC(C)n1cncc(-c2ccc(C3(NC(=O)c4ncc5cnn(C(C)C)c5n4)CC3)c(F)c2)c1=O [Compound 34] | 78 nM |
| CC(C)n1cncc(-c2ccc(C3(NC(=O)c4ncc5cnn(C(C)C)c5n4)CC3)cc2F)c1=O [Compound 35] | 154 nM |
| CC(C)n1ncc2cnc(C(=O)NC3(c4ccc(-c5cncn(CC6CC6)c5=O)cc4)CC3)nc21 [Compound 36] | 84 nM |
| CCn1cncc(-c2ccc(C3(NC(=O)c4ncc5cnn(C(C)C)c5n4)CC3)cc2)c1=O [Compound 37] | 186 nM |
| CC(C)n1ncc2cnc(C(=O)NC3(c4ccc(-c5cncn(CC(F)(F)F)c5=O)cc4)CC3)nc21 [Compound 38] | 152 nM |
| CC(C)n1ncc2cnc(C(=O)NC3(c4ccc(-c5cncn([C@H](C)C(F)(F)F)c5=O)cc4)CC3)nc21 [Compound 39] | 59 nM |
| CC(C)n1ncc2cnc(C(=O)NC3(c4ccc(-c5cncn([C@@H](C)C(F)(F)F)c5=O)cc4)CC3)nc21 [Compound 40] | 109 nM |
